Laboratory results: US20230159510A1, “NOVEL PRMT5 INHIBITORS” (AMGEN INC., priority 2020, published 2023)

Experiments:
HCT116 MTAP null cells = experiment: HCT116 proliferation assay, MTAP null cells (CellTiter-Glo, 6 days); format: cell-based; settings: HCT116-MTAP null, 144 h, read-out: Protif_ HCT116-MTAP null IC50
Procedure, shortened: (§1)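 Luminescent viability signal was measured after continuous drug exposure. Before dosing, cells attached overnight (37° C, 5% CO2) in RPMI 1640 + 10% FBS. Dosing used 1:3 steps over 8 or 9 points, starting at 1 or 10 µM, with DMSO-only wells as control.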

HCT116 WT cells = experiment: HCT116 proliferation assay, WT cells (CellTiter-Glo, 6 days); format: cell-based; settings: Homo sapiens, HCT-116, 144 h, read-out: Prolif_HCT116-WT IC50
Procedure, shortened: as §1

IC50 (HCT116 MTAP null cells) [nM]	IC50 (HCT116 WT cells) [nM]	Compound
337	> 10000	Nc1nc2ccc(C(=O)N(Cc3ccc(Br)nn3)[C@@H]3CCCn4ncnc43)cc2cc1Br [Example 758, (R)-2-amino-3-bromo-N-((6-bromopyridazin-3-yl)methyl)-N-(5,6,7,8-tetrahydro-[1,2,4]triazolo[1,5-a]pyridin-8-yl)quinoline-6-carboxamide]
293	> 10000	CC[C@H](c1ncccn1)N(Cc1ccc(C#N)cn1)C(=O)c1ccc2nc(N)c(Br)cc2c1 [Example 759, (R)-2-amino-3-bromo-N-((5-cyanopyridin-2-yl)methyl)-N-(1-(pyrimidin-2-yl)propyl)quinoline-6-carboxamide]
100	2930	CC[C@H](c1ncccn1)N(Cc1ccc(C#N)cn1)C(=O)c1ccc2nc(N)c(I)cc2c1 [Example 760, (R)-2-amino-N-((5-cyanopyridin-2-yl)methyl)-3-iodo-N-(1-(pyrimidin-2-yl)propyl)quinoline-6-carboxamide]
64	1350	Cc1cc2cc(C(=O)N(Cc3ccc(C4CC4)nn3)[C@H](C)c3ncccn3)ccc2nc1N [Example 761, (R)-2-amino-N-((6-cyclopropylpyridazin-3-yl)methyl)-3-methyl-N-(1-(pyrimidin-2-yl)ethyl)quinoline-6-carboxamide]
180	8800	C[C@H](c1ncccn1)N(Cc1ccc(C2CC2)nn1)C(=O)c1ccc2nc(N)c(Br)cc2c1 [Example 762, (R)-2-amino-3-bromo-N-((6-cyclopropylpyridazin-3-yl)methyl)-N-(1-(pyrimidin-2-yl)ethyl)quinoline-6-carboxamide]
57	4340	C[C@H](c1ncccn1)N(Cc1ccc(C2CC2)nn1)C(=O)c1ccc2nc(N)c(I)cc2c1 [Example 763, (R)-2-amino-N-((6-cyclopropylpyridazin-3-yl)methyl)-3-iodo-N-(1-(pyrimidin-2-yl)ethyl)quinoline-6-carboxamide]
287	4220	Cc1cc2cc(C(=O)N(Cc3ccc(N4CCOCC4)cn3)[C@H](C)c3ncccn3)ccc2nc1N [Example 764, (R)-2-amino-3-methyl-N-((5-morpholinopyridin-2-yl)methyl)-N-(1-(pyrimidin-2-yl)ethyl)quinoline-6-carboxamide]
180	512	C[C@H](c1ncccn1)N(Cc1ccc(C(F)(F)F)cn1)C(=O)c1ccc2nc(N)ccc2c1 [Example 765, (R)-2-amino-N-(1-(pyrimidin-2-yl)ethyl)-N-((5-(trifluoromethyl)pyridin-2-yl)methyl)quinoline-6-carboxamide]
161	5900	CC(c1cscn1)N(Cc1ccc(C(F)(F)F)nn1)C(=O)c1cnc2nc(N)c(Br)cc2c1 (stereo not shown) [Example 766, 7-amino-6-bromo-N-(1-(thiazol-4-yl)ethyl)-N-((6-(trifluoromethyl)pyridazin-3-yl)methyl)-1,8-naphthyridine-3-carboxamide]
56	3550	C[C@H](c1ncccn1)N(Cc1ccc(Br)nn1)C(=O)c1ccc2nc(N)c(I)cc2c1 [Example 767, (R)-2-amino-N-((6-bromopyridazin-3-yl)methyl)-3-iodo-N-(1-(pyrimidin-2-yl)ethyl)quinoline-6-carboxamide]
116	3960	C[C@H](c1ncccn1)N(Cc1ccc(Cl)cn1)C(=O)c1cnc2nc(N)c(I)cc2c1 [Example 768, (R)-7-amino-N-((5-chloropyridin-2-yl)methyl)-6-iodo-N-(1-(pyrimidin-2-yl)ethyl)-1,8-naphthyridine-3-carboxamide]
52	5010	C[C@H](c1ncccn1)N(Cc1ccc(C#N)c(Cl)n1)C(=O)c1ccc2nc(N)c(I)cc2c1 [Example 769, (R)-2-amino-N-((6-chloro-5-cyanopyridin-2-yl)methyl)-3-iodo-N-(1-(pyrimidin-2-yl)ethyl)quinoline-6-carboxamide]
132	4750	Cc1cc2c(C)c(C(=O)N(Cc3ccc(C(F)(F)F)cn3)[C@H](C)c3ncccn3)ccc2nc1N [Example 770, 2-amino-3,5-dimethyl-N-((1R)-1-(2-pyrimidinyl)ethyl)-N-((5-(trifluoromethyl)-2-pyridinyl)methyl)-6-quinolinecarboxamide]
270	> 10000	COC[C@@H](C)N(Cc1ccc(C(F)(F)F)cn1)C(=O)c1ccc2nc(N)c(C)cc2c1C [Example 771, 2-amino-N-((2R)-1-methoxy-2-propanyl)-3,5-dimethyl-N-((5-(trifluoromethyl)-2-pyridinyl)methyl)-6-quinolinecarboxamide]
437	17600	CCOc1ccc(CN(C(=O)c2cnc3nc(N)c(I)cc3c2)[C@H](C)c2ncccn2)nn1 [Example 772, (R)-7-amino-N-((6-ethoxypyridazin-3-yl)methyl)-6-iodo-N-(1-(pyrimidin-2-yl)ethyl)-1,8-naphthyridine-3-carboxamide]
304	> 10000	C[C@H](c1ncccn1)N(Cc1ccc(Cl)nn1)C(=O)c1ccc2nc(N)c(Br)cc2c1 [Example 773, (R)-2-amino-3-bromo-N-((6-chloropyridazin-3-yl)methyl)-N-(1-(pyrimidin-2-yl)ethyl)quinoline-6-carboxamide]
195	7220	N#CC[C@@H](C1CC1)N(Cc1ccc(C#N)cn1)C(=O)c1ccc2nc(N)c(Br)cc2c1 [Example 776, (S)-2-amino-3-bromo-N-(2-cyano-1-cyclopropylethyl)-N-((5-cyanopyridin-2-yl)methyl)quinoline-6-carboxamide]
372	> 10000	C[C@H](c1ncccn1)N(Cc1cc2c(cn1)OCCC2)C(=O)c1ccc2nc(N)c(Br)cc2c1 [Example 777, (R)-2-amino-3-bromo-N-((3,4-dihydro-2H-pyrano[2,3-c]pyridin-6-yl)methyl)-N-(1-(pyrimidin-2-yl)ethyl)quinoline-6-carboxamide]
72	2050	N#CC[C@@H](C1CC1)N(Cc1ccc(C(F)(F)F)cn1)C(=O)c1ccc2nc(N)c(Br)cc2c1 [Example 778, (S)-2-amino-3-bromo-N-(2-cyano-1-cyclopropylethyl)-N-((5-(trifluoromethyl)pyridin-2-yl)methyl)quinoline-6-carboxamide]
162	6150	COC[C@@H](C)N(Cc1ccc(OC)nn1)C(=O)c1ccc2nc(N)c(C)cc2c1 [Example 789, 2-amino-N-((2R)-1-methoxy-2-propanyl)-N-((6-methoxy-3-pyridazinyl)methyl)-3-methyl-6-quinolinecarboxamide]
156	5160	Cc1cc2cc(C(=O)N(Cc3ccc(OCC(F)(F)F)nn3)[C@H](C)c3ncccn3)ccc2nc1N [Example 790, (R)-2-amino-3-methyl-N-(1-(pyrimidin-2-yl)ethyl)-N-((6-(2,2,2-trifluoroethoxy)pyridazin-3-yl)methyl) quinoline-6-carboxamide]
60	1720	Cc1cc2cc(C(=O)N(Cc3ccc(OC(F)(F)F)nn3)C(C)c3ncccn3)ccc2nc1N (stereo not shown) [Example 791, 2-amino-3-methyl-N-(1-(pyrimidin-2-yl)ethyl)-N-((6-(trifluoromethoxy)pyridazin-3-yl)methyl)quinoline-6-carboxamide]
119	3840	Cc1cc2cc(C(=O)N(Cc3cc4ccccc4cn3)C(C)c3ncccn3)ccc2nc1N (stereo not shown) [Example 792, 2-amino-N-(isoquinolin-3-ylmethyl)-3-methyl-N-(1-(pyrimidin-2-yl)ethyl)quinoline-6-carboxamide]
783	> 10000	C[C@H](c1ncccn1)N(Cc1ccc(OCC(F)(F)F)nn1)C(=O)c1cnc2nc(N)c(Br)cc2c1 [Example 793, (R)-7-amino-6-bromo-N-(1-(pyrimidin-2-yl)ethyl)-N-((6-(2,2,2-trifluoroethoxy)pyridazin-3-yl)methyl)-1,8-naphthyridine-3-carboxamide]
56	1390	Cc1cc2cc(C(=O)N(Cc3ccc(C(F)(F)F)cn3)C(C)c3ncon3)ccc2nc1N (stereo not shown) [Example 795, N-(1-(1,2,4-oxadiazol-3-yl)ethyl)-2-amino-3-methyl-N-((5-(trifluoromethyl)pyridin-2-yl)methyl)quinoline-6-carboxamide]
308	> 10000	Cc1nc(CN(C(=O)c2ccc3nc(N)c(Br)cc3c2)[C@H](C)c2ncccn2)ccc1C#N [Example 796, (R)-2-amino-3-bromo-N-((5-cyano-6-methylpyridin-2-yl)methyl)-N-(1-(pyrimidin-2-yl)ethyl)quinoline-6-carboxamide]
229	3820	Cc1cc2cc(C(=O)N(Cc3ccc(C(F)(F)F)cn3)C(C)c3ccnc(F)c3)ccc2nc1N (stereo not shown) [Example 797, 2-amino-N-(1-(2-fluoropyridin-4-yl)ethyl)-3-methyl-N-((5-(trifluoromethyl)pyridin-2-yl)methyl)quinoline-6-carboxamide]
13	301	Cc1cc2cc(C(=O)N(Cc3ccc(C(F)(F)F)cn3)[C@H](C)c3cccc(F)n3)ccc2nc1N [Example 799, (R)-2-amino-N-(1-(6-fluoropyridin-2-yl)ethyl)-3-methyl-N-((5-(trifluoromethyl)pyridin-2-yl)methyl)quinoline-6-carboxamide]
173	2790	C[C@H](c1cccc(F)n1)N(Cc1ccc(C(F)(F)F)cn1)C(=O)c1cnc2nc(N)c(Br)cc2c1 [Example 800, (R)-7-amino-6-bromo-N-(1-(6-fluoropyridin-2-yl)ethyl)-N-((5-(trifluoromethyl)pyridin-2-yl)methyl)-1,8-naphthyridine-3-carboxamide]
